Test results published in patent US3966956A, “[1-(P-Chlorobenzoyl)-5-methoxy-2-methyl-3-indole]acetoxyacetic acid and salts in treating inflammation” (Troponwerke Dinklage & Company, priority 1972, dated 1976).
Structures can show the parent of a compound that is named as a salt. Where two headings read alike, the source gives them in different places.

Tests used:
[1] = tested on: carrageenin oedema of the paw; assay: carrageenin oedema on the paw of a rat; assay type: in vivo; details: once orally
Description: (§1) Furthermore, with two other forms of inflammation, the inflammations produced with formalin and carrageenin on the paw of a rat, the oedema-inhibiting efficiency of I is stronger than that of II. […] These differences are also statistically significant.

[2] = tested on: sulphydryl groups present in the serum; assay: Gerber method: reaction velocity of serum sulphydryl groups with 2,2'-dinitro-5,5-dithiobenzoic acid; assay type: biochemical; details: concentration range 0.5 to 3 mMol/liter
Description: Another characteristic test for determining the activity of non-steroid antiphlogistic substances is the method described by D. A. Gerber, N. Cohen and R. Giustra (cf. Biochem. Pharmacol. 16 (1967) 115) of influencing the physical-chemical behaviour of native protein, for example influencing the reaction velocity of the sulphydryl groups present in the serum with 2,2'-dinitro-5,5-dithiobenzoic acid. […] Since, according to Gerber et al, (loc. cit.), the percentage increase in reaction velocity is directly proportional to antiphlogistic activity, a greater activity of I by comparison with II can also be derived from this […] test; this applies above all in the lower concentration ranges (105:39) which come closest to the therapeutically attainable concentrations. In this case, too, the intact compound I can be shown to be the only active component.

[3] = acute oral toxicity (LD50), rat; details: in vivo, single oral administration, I given as sodium salt
Method: (§2) The toxicity data (LD50) of both compounds are as follows:
(§3) As regards I, after single oral administration of 55.5 mg/kg to the mouse and 38.9 mg/kg to the rat (using the sodium salt of I). The corresponding data for II are 18.4 and 24.5 mg/kg, respectively.

[4] = resorption after oral administration in dogs; assay type: in vivo; details: dog
[5] = tested on: formalin oedema of the paw; assay: formalin oedema on the paw of a rat; assay type: in vivo; details: once orally
Description: as §1

human albumin = assay: protein binding by the ultracentrifuging method; assay type: in vitro ADME; details: same protein and equivalent substance concentration
Description: Another interesting criterion for the activity of a pharmacon is protein binding. It is known that, in the serum, pharmacons are partly bound to protein and it is only those fractions that are not bound to protein which are responsible for the onset of biological activity. […] Where human albumin is used, the differences amount to about 60%, in other words, for the same protein concentration and an equivalent substance concentration, the values for non-protein-bound I are about 60% higher than those of II. The values found for II are consistent with those described in the literature (cf. E. Hvidberg et al, Eur. J. clin. Pharmacol. 4 (1972), 119). Accordingly, I can be expected to show greater activity in this test as well, i.e. a smaller dosage of I is required which can again be of advantage in toxicological terms.

[6] = acute oral toxicity (LD50), mouse; details: in vivo, single oral administration, I given as sodium salt
Method: as §2, §3

adjuvant arthritis = assay: arthritis produced in the rat with Freud's adjuvants; assay type: in vivo
kaolin oedema of the paw = kaolin oedema of the paw of a rat; assay type: in vivo; details: for ED50: read-out: ED50 (dose which reduces the oedemas by half as compared with a control group)
[7] = patients, relatively slight side effects and serious cases; cited from earlier work
protein = assay: Mizushima's Test (inhibition of protein hazing); assay type: biochemical
Method: It was also possible to confirm the superiority of I over II in Mizushima's Test in which potent antiphlogistics are known to inhibit protein hazing directly proportional to their antiphlogistic potency (cf. Arch. int. Pharmacodyn. 149 (1964), 1, and 157 (1965), 115).
A DE50 of 0.07 mg/ml was measured for the sodium salt of I, in other words the level of protein hazing was inhibited by 50% at this concentration.

[8] = cited from earlier work
[9] = stability of the dissolved sodium salt in water or water/alcohol; assay type: physicochemical; details: aqueous or aqueous-alcoholic solution
Description: the free acid I can be converted into its salts in a manner known per se. Pharmacologically acceptable and conventional inorganic and organic bases can be considered for this purpose.

## COc1ccc2c(c1)c(CC(=O)OCC(=O)O)c(C)n2C(=O)c1ccc(Cl)cc1 [I, [1-(p-chlorobenzoyl)-5-methoxy-2-methyl-3-indole]-acetoxyacetic acid]
[1]; 1.5 mg/kg
  inhibition of carrageenin oedema: 62%
[2]
  increase in reaction velocity of serum sulphydryl groups: 105-335%
[3]
  LD50: 38.9 mg/kg
[4]
  detection as an unchanged molecule in the organism: can be detected as an unchanged molecule for several hours in the organism
  resorption after oral administration: well resorbed after oral administration
[5]; 1.5 mg/kg
  inhibition of formalin oedema: 25%
Human albumin
  increase of non-protein-bound fraction over II: about 60%
[6]
  LD50: 55.5 mg/kg
Adjuvant arthritis; oral, daily dose 3.5 mg/kg of I versus equimolar 3 mg/kg of II
  antiphlogistic effect on adjuvant arthritis compared with II: decidedly stronger than that of the equimolar daily dose of 3 mg/kg of II
Adjuvant arthritis; primary and generalised inflammation symptoms
  inflammation-inhibiting efficiency on adjuvant arthritis: strong inflammation-inhibiting efficiency
Kaolin oedema of the paw; rat, single oral application, range of confidence (P = 5%): I 0.37 to 0.67, II 0.83 to 1.40
  ED50: 0.5 mg/kg
Kaolin oedema of the paw; rat, single oral, from ED50
  relative effectiveness I versus II on kaolin oedema: about twice as effective as II

## COc1ccc2c(c1)c(CC(=O)O)c(C)n2C(=O)c1ccc(Cl)cc1 [II, 1-(p-chlorobenzoyl)-5-methoxy-2-methyl-3-indole acetic acid, reference compound]
[1]; 1.6 mg/kg
  inhibition of carrageenin oedema: 42%
[2]
  increase in reaction velocity of serum sulphydryl groups: 39-272%
[3]
  LD50: 24.5 mg/kg
[5]; 1.6 mg/kg
  inhibition of formalin oedema: 13.8%
[7]
  side effects: neurosensitive disturbances such as headaches, vertigos and concentration difficulties, digestive complaints with loss of appetite, sickness, stomach pains, diarrhoea and, finally, some serious cases of intestinal bleeding, stomach ulcers and, occasionally, neurological deficiency symptoms
protein
  DE50 (concentration inhibiting the level of protein hazing by 50%): 0.13 mg/mL
[6]
  LD50: 18.4 mg/kg
Kaolin oedema of the paw; Rattus norvegicus, po
  ED50: 1.04 mg/kg
[8]
  patients in whom therapy had to be discontinued because of the side effects: ~10%

## COc1ccc2c(c1)c(CC(=O)OCC(=O)O)c(C)n2C(=O)c1ccc(Cl)cc1 [sodium salt of I]
protein
  DE50 (concentration inhibiting the level of protein hazing by 50%): 0.07 mg/mL
[9]
  stability/clarity of solution of the sodium salt: the solution remains clear for a considerable period of time

## COc1ccc2c(c1)c(CC(=O)O)c(C)n2C(=O)c1ccc(Cl)cc1 [sodium salt of the known compound II, reference compound]
[9]
  stability/clarity of solution of the sodium salt: almost immediately, a clouding of the solution and the compound II begins to decompose
